Measured values as given in PubChem BioAssay (NCI).
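Where inhibition never reached the appropriate level, the endpoint shown equals the highest concentration tested. Otherwise, values were interpolated linearly from a five-concentration, 48-hour dose response in 96-well plates. GI50 marks 50% less growth. TGI marks complete inhibition of growth.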

Tests used:
Assay in all cases: NCI-60 cell line screen, 48 h
OVCAR-4 ovarian = tested on: OVCAR-4 ovarian
SK-OV-3 ovarian = tested on: SK-OV-3 ovarian
M14 melanoma = tested on: M14 melanoma
ACHN renal = tested on: ACHN renal
CCRF-CEM leukemia = tested on: CCRF-CEM leukemia
KM12 colon = tested on: KM12 colon
BT-549 breast = tested on: BT-549 breast
HCT-116 colon = tested on: HCT-116 colon
MCF7 breast = tested on: MCF7 breast
NCI/ADR-RES ovarian = tested on: NCI/ADR-RES ovarian

Row | Compound | TGI (OVCAR-4 ovarian) | TGI (SK-OV-3 ovarian) | TGI (M14 melanoma) | TGI (ACHN renal) | TGI (CCRF-CEM leukemia) | TGI (KM12 colon) | TGI (BT-549 breast) | TGI (HCT-116 colon) | TGI (MCF7 breast) | GI50 (OVCAR-4 ovarian) | GI50 (NCI/ADR-RES ovarian) | TGI (NCI/ADR-RES ovarian) | GI50 (M14 melanoma) | GI50 (ACHN renal) | GI50 (BT-549 breast) | GI50 (HCT-116 colon) | GI50 (MCF7 breast) | GI50 (CCRF-CEM leukemia) | GI50 (KM12 colon) | GI50 (SK-OV-3 ovarian)
1 | Cc1nc2c(sc(=S)n2-c2ccccc2)c2nc3ccccc3n12 | > 100 µM | > 100 µM | > 100 µM | > 100 µM | > 100 µM | > 100 µM |  |  |  |  |  |  |  |  |  |  |  |  |  | 
2 | COc1cc2c(cc1-c1coc3cc(OCC=C(C)C)ccc3c1=O)OCO2 | > 100 µM | > 100 µM | > 100 µM | > 100 µM |  | 52.4 µM | 48.4 µM | 51.4 µM | > 100 µM |  |  |  |  |  |  |  |  |  |  | 
3 | O=C(NCC(=O)N1CCOC1=O)OCc1ccccc1 | > 100 µM | > 100 µM | > 100 µM | > 100 µM | > 100 µM | > 100 µM |  | > 100 µM |  |  |  |  |  |  |  |  |  |  |  | 
4 | Cc1cc(C)nc(NS(=O)(=O)c2ccc(NC(=O)c3cccn4c(=O)c5ccccc5nc34)cc2)n1 | 68.3 µM |  | > 100 µM | > 100 µM | > 100 µM | > 100 µM |  | > 100 µM |  |  |  |  |  |  |  |  |  |  |  | 
5 | CCCCCCCCCCCCCP(=O)(NCC(N)=O)OCC (configuration not stated) | 32.2 µM | 41.8 µM | 30.6 µM | 47.9 µM | 47.7 µM | 34 µM |  | 28 µM |  |  |  |  |  |  |  |  |  |  |  | 
6 | O=C(Nc1cnc(C(F)(F)F)cn1)c1cc(Cl)ccc1O | > 100 µM |  | 2.46 µM | 1.16 µM | > 100 µM | 16.2 µM | 0.835 µM | 1.4 µM | > 100 µM | 0.254 µM | 0.279 µM | 13.6 µM | 0.306 µM | 0.269 µM | 0.255 µM | 0.246 µM | 0.29 µM | 0.406 µM | 0.343 µM | 
7 | COCCOCOC(C)(C)[C@H](CCOC(C)=O)O[Si](c1ccccc1)(c1ccccc1)C(C)(C)C | > 100 µM | > 100 µM | 49.4 µM | 51.1 µM | 23.7 µM | > 100 µM |  | > 100 µM |  |  |  |  |  |  |  |  |  |  |  | 
8 | COc1cc(/C=C\c2ccncc2)cc(OC)c1OC | > 100 µM |  | > 100 µM | > 100 µM | > 100 µM | > 100 µM |  | > 100 µM |  |  |  |  |  |  |  |  |  |  |  | 
9 | CCC[CH2][Sn]([CH2]CCC)([O]C(=O)/C=C/c1ccccc1F)[O]C(=O)/C=C/c1ccccc1F | 2.9 µM | 4.48 µM | 2.22 µM | 2.05 µM | 0.616 µM | 2.72 µM |  | 2.52 µM |  | 1.45 µM |  |  | 0.873 µM | 0.797 µM |  | 1.05 µM |  | 0.139 µM | 1.38 µM | 2.04 µM
10 | COC(=O)/C(C#N)=C1\CCc2ccccc21 | > 100 µM | > 100 µM | > 100 µM | > 100 µM | > 100 µM | > 100 µM |  |  |  |  |  |  |  |  |  |  |  |  |  | 
11 | O=C(O)COc1ccc(C(=O)/C(SS/C(C(=O)c2ccc(OCC(=O)O)c(Cl)c2Cl)=C2\C=C(c3ccc(Br)cc3)SS2)=C2/C=C(c3ccc(Br)cc3)SS2)c(Cl)c1Cl | > 50.1 µM | > 89.5 µM | > 91.6 µM | 22 µM | 17 µM | 28.4 µM | 67.3 µM | 22.1 µM | 13.2 µM |  |  |  |  |  |  |  |  |  |  | 
12 | COc1ccc(-c2ccc(/C=N/n3c(COc4ccccc4Cl)n[nH]c3=S)o2)c([N+](=O)[O-])c1 | > 100 µM | > 100 µM | 79.1 µM | 69.5 µM | > 100 µM | 49.5 µM |  | 33.8 µM | 40.5 µM | 45.4 µM | 22.6 µM | 57.1 µM | 26.6 µM | 25.6 µM |  | 17.3 µM | 18.7 µM | 23.1 µM | 20.9 µM | 35.4 µM
13 | C=C1C(=O)O[C@H]2[C@H]1CC/C(CNC(=O)/C=C/c1ccccc1)=C\CC[C@@]1(C)O[C@@H]21 | 4.14 µM | 26 µM | 3.23 µM | 2.03 µM | 1.3 µM | 16.7 µM | 3.47 µM | 1.75 µM |  | 1.51 µM | 3.29 µM | 14.5 µM | 1.15 µM | 0.755 µM | 1.46 µM | 0.465 µM |  | 0.342 µM | 4.94 µM | 13.2 µM
14 | O=C(CCc1nc(=S)[nH][nH]1)Nc1cccc(C(F)(F)F)c1 | > 100 µM | > 100 µM | > 100 µM | > 100 µM | > 100 µM | > 100 µM |  | > 100 µM |  |  |  |  |  |  |  |  |  |  |  | 
15 | O=C(O)[C@@H](NS(=O)(=O)c1ccc2ccccc2c1)c1ccccc1 | > 100 µM | > 100 µM | > 100 µM | > 100 µM | > 100 µM |  |  |  |  |  |  |  |  |  |  |  |  |  |  | 
16 | COc1cc2c(c(OC)c1OC)-c1c(cc3c(c1OC)OCO3)CC(C)C(C)(O)C2OC(=O)c1ccccc1 (configuration not stated) | > 100 µM | > 100 µM | > 100 µM | > 100 µM | 63.9 µM | > 100 µM | > 100 µM | > 100 µM | > 100 µM |  |  |  |  |  |  |  |  |  |  | 
17 | CCC1C(=O)OCc2c1cc1n(c2=O)C(CC)c2c-1nc1ccccc1c2Cl (configuration not stated) | > 100 µM | 89 µM | > 100 µM | > 100 µM | > 100 µM | 96.6 µM |  |  |  |  |  |  |  |  |  |  |  |  |  | 
18 | Nc1ncnc2c1nnn2C1C=C(CO)C(O)C1O (configuration not stated) | > 100 µM | > 100 µM | > 100 µM | > 100 µM | > 100 µM | > 100 µM |  | > 53.3 µM |  |  |  |  |  |  |  |  |  |  |  | 
19 | CC1=C(Cl)C[C@@H](/C(C)=C\Cl)O[C@@]1(O)C(Br)Br | > 100 µM | > 100 µM | 67.7 µM | 75 µM | 57.5 µM | > 100 µM | 79.6 µM | > 100 µM | 49.3 µM |  |  |  |  |  |  |  |  |  |  | 
20 | COc1ccc2c(c1)C(=O)c1c-2c(N2CCNCC2)nc2ccccc12 | 27.1 µM | 19.2 µM | 3.51 µM | 8.24 µM | 2.94 µM | 4.84 µM | 11.4 µM |  | 2.58 µM | 9.93 µM | 6.33 µM | 23.7 µM | 1.91 µM | 2.78 µM | 3.4 µM |  | 1.28 µM | 1.36 µM | 2.01 µM | 6 µM
21 | CN1CCN(c2cc3nc4ccccc4n(-c4ccc(Cl)cc4)c-3cc2=N)CC1 |  | > 100 µM | 43.8 µM | > 100 µM |  | 43.8 µM | > 100 µM | 57.2 µM | > 100 µM |  | 32.1 µM | > 100 µM | 21.4 µM | 23.4 µM | 41.6 µM | 22.2 µM | 35.6 µM |  | 16.6 µM | > 100 µM
